Reference: patent US10370436B2, “Anti-pseudomonas Psl binding molecules and uses thereof” (priority 2011, dated 2019)

Key:
[1] = system: P. aeruginosa PAO1.lux association with A549 cells; assay: Cell attachment assay, PAO1.lux to A549 cells; format: cell-based, Pseudomonas aeruginosa; conditions: MOI of 10, FIG. 4, FIG. 9B
Experimental: Anti-Psl antibodies were added to a confluent monolayer of A549 cells (an adenocarcinoma human alveolar basal epithelial cell line) grown in opaque 96-well plates (Nunc Nunclon Delta). Log-phase luminescent P. aeruginosa PAO1 strain (PAO1.lux) was added at an MOI of 10. After incubation of PAO1.lux with A549 cells at 37° C. for 1 hour, the A549 cells were washed, followed by addition of LB+0.5% glucose. Bacteria were quantified following a brief incubation at 37° C. as performed in the OPK assay described in Example 2. Measurements from wells without A549 cells were used to correct for non-specific binding.

[2] = system: Psl on in vivo passaged P. aeruginosa strains; assay: Flow cytometry of in vivo passaged P. aeruginosa; format: binding, Pseudomonas aeruginosa
Source text: For IgG expression, the VH and VL chains of selected antibodies were cloned into human IgG1 expression vectors, co-expressed in HEK293 cells, and purified by protein A affinity chromatography as described (Persic, L., et al., Gene 187, 9-18 (1997)). Human IgG1 antibodies made with the variable regions from these selected serotype independent phage were confirmed for P. aeruginosa specificity and prioritized for subsequent analysis by whole cell binding to dominant clinically relevant serotypes by FACS analysis (FIG. 1F), since this method is more stringent than ELISA. For the flow cytometry based binding assays mid-log phase P. aeruginosa strains were concentrated in PBS to an OD650 of 2.0. After incubation of antibody (10 μg/mL) and bacteria (˜1×10^7 cells) for 1 hr at 4° C. with shaking, washed cells were incubated with an ALEXA FLUOR […] goat anti-human IgG antibody (Invitrogen, Carlsbad, Calif.) for 0.5 hr at 4° C. Washed cells were stained with BACLIGHT™ green bacterial stain as recommended (Invitrogen, Carlsbad, Calif.). Samples were run on a LSR II flow cytometer (BD Biosciences) and analyzed using BD FacsDiva (v. 6.1.3) and FlowJo (v. 9.2; TreeStar).
To test if Psl expression in vivo is maintained, mice were injected intraperitoneally with P. aeruginosa isolates followed by harvesting of bacteria by peritoneal lavage four hours post-infection. The presence of Psl was analyzed with a control antibody and Cam-003 by flow cytometry as conditions for antibody binding are more stringent and allow for quantification of cells that are positive or negative for Psl expression. For ex vivo binding, bacterial inocula (0.1 ml) was prepared from an overnight TSA plate and delivered intraperitoneally to BALB/c mice. At 4 hr. following challenge, bacteria were harvested, RBCs lysed, sonicated and resuspended in PBS supplemented with 0.1% Tween-20 and 1% BSA. Samples were stained and analyzed as previously described in Example 1. […] Within the inocula, Psl was not detected for strain 6077 and was minimally detected for strains PAO1 (O5) and 6206 (O11-cytotoxic).
The level of Psl expression/accessibility on the surface of P. aeruginosa strains PAO1 and 6206 in the acute pneumonia model was also assessed. Bacteria prepared from overnight-incubated, confluent plates, as described above, were intranasally administered to BALB/c mice. At 4 and 24 hours post-infection, bacteria were recovered from the lungs by bronchoalveolar lavage. Samples were stained and analyzed as previously described in Example 1.

[3] = system: luminescent P. aeruginosa serogroup 05 strain (PAO1.lux); assay: Opsonophagocytosis killing (OPK) assay, PAO1.lux; format: cell-based, Pseudomonas aeruginosa
Experimental: This example describes the evaluation of prioritized human IgG1 antibodies to promote OPK of P. aeruginosa. […] OPK assays were performed as described in (DiGiandomenico, A., et al., Infect Immun 72, 7012-7021 (2004)), with modifications. Briefly, assays were performed in 96-well plates using 0.025 ml of each OPK component; P. aeruginosa strains; diluted baby rabbit serum; differentiated HL-60 cells; and monoclonal antibody. In some OPK assays, luminescent P. aeruginosa strains, which were constructed as described (Choi, K. H., et al., Nat Methods 2, 443-448 (2005)), were used. Luminescent OPK assays were performed as described above but with determination of relative luciferase units (RLUs) using a Perkin Elmer ENVISION Multilabel plate reader (Perkin Elmer).
This example describes two series of experiments evaluating the ability of PMB-mAb conjugates to promote OPK of P. aeruginosa. In the first experiments (FIGS. 15A-B), conjugate-mediated OPK activity by human HL-60 neutrophil cell line in the presence of rabbit complement was evaluated using P. aeruginosa strains expressing bacterial luciferase as described in Example 2. R347 was used as a negative control in these experiments. […] In the second series of experiments, reduction in luminescence following 2 h incubation relative to control lacking mAb was used to determine % killing.

Substance: Cam-003: human IgG1 anti-Psl monoclonal antibody, VH SEQ ID NO: 1 and VL SEQ ID NO: 2
- inhibition of association of PAO1.lux to A549 cells [1]: most active at inhibiting P. aeruginosa cell attachment to A549 lung epithelial cells
- staining of bacteria by flow cytometry ([2]; 6206, bronchoalveolar lavage 4 hours post-infection, FIG. 5D): minimal
- staining of bacteria by flow cytometry ([2]; PAO1, bronchoalveolar lavage 4 hours post-infection, FIG. 5D): Strong Cam-003 staining
- staining of bacteria by flow cytometry ([2]; PAO1 and 6206, bronchoalveolar lavage 24 hours post-infection, FIG. 5E): strong Cam-003 staining
- reactivity by flow cytometry after in vivo passage ([2]; PAO1ΔpslA): unable to react with Cam-003
- staining of bacteria by flow cytometry ([2]; three wild type strains harvested by peritoneal lavage 4 hr after intraperitoneal challenge, FIG. 5C): strong Cam-003 staining
- OPK EC50 ([3]; FIG. 9A): 0.06 µg/mL
- OPK activity (concentration dependent killing) ([3]; human IgG1 antibodies, differentiated HL-60 cells, baby rabbit serum, FIG. 2A): superior OPK activity
